Molecular target: T1, human histamine H3 receptor (Homo sapiens, UniProt Q9Y5N1)
T1 construct: expressed in transfected cells; host or cells: HEK293 and CHO-K1
Assay: Test for Inhibition of Bonding of Histamine Analog
Format: binding
Settings: for IC50: membrane specimen from histamine H3 receptor-expressed cells, [3H]N-α-methylhistamine, 25° C., 2 hours, read-out: 50% inhibition concentration (IC50 value) of the test compound to a specific N-alpha-methylhistamine bond; for inhibition of the bond of N-alpha-methylhistamine (histamine analog) to a histamine H3 receptor: summary in words of the IC50 results
Excerpt: A cDNA sequence coding for human histamine H3 receptor [refer to WO 00/39164] was cloned to an expression vector pCR2.1, pEF1× (manufactured by Invitrogen) and pCI-neo (manufactured by Promega). The resulting expression vector was transfected to host cells HEK293 and CHO-K1 (American Type Culture Collection) by a cationic lipid method [refer to Proceedings of the National Academy of Sciences, the United States of America, volume 84, page 7413 (1987)] to give histamine H3 receptor-expressed cells.
A membrane specimen prepared from the cells where histamine H3 receptor was expressed was incubated at 25° C. for 2 hours in an assay buffer (50 mM Tris buffer, pH 7.4) together with a test compound (the compound of Example 1) and 20,000 cpm of [3H]N-α-methylhistamine (manufactured by NEN) and then filtered using a glass filter GF/C. After washing with a 50 mM Tris buffer of pH 7.4, radiation activity on the glass filter was determined. Non-specific bond was measured in the presence of a 10 μM thioperamide (manufactured by Sigam) to determine a 50% inhibition concentration (IC50 value) of the test compound to a specific N-alpha-methylhistamine bond [refer to Molecular Pharmacology, volume 55, page 1101 (1999)].

T1 sequence (Q9Y5N1 whole entry): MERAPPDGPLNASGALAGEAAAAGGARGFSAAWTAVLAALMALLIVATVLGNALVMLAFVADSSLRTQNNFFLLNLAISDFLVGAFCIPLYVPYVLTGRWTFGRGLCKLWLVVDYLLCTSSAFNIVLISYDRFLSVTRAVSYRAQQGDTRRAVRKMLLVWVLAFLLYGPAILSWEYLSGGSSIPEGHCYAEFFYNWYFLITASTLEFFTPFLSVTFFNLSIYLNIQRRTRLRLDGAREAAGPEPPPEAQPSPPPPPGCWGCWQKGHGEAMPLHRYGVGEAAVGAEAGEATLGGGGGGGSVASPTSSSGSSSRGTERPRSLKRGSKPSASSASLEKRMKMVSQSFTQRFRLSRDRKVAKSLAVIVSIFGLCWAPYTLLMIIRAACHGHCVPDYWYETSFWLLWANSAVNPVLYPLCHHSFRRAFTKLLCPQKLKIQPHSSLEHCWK

SMILES	IC50	inhibition of the bond of N-alpha-methylhistamine (histamine analog) to a histamine H3 receptor
CN(CCN1CCCCC1)C(=O)[C@H]1CC[C@@]2(CC1)OC(=O)c1cc(-c3ccccn3)ccc12 [Example 58, trans-5′-(Pyridin-2-yl)-3′-oxo-N-methyl-N-(2-piperidin-1-ylethyl)-spiro[cyclohexane-1,1′-(3′H)-isobenzofuran]-4-carboxamide]	0.08 nM	strongly inhibited
CN(CCN1CCCCC1)C(=O)[C@H]1CC[C@@]2(CC1)OC(=O)c1cc(Oc3ccccn3)ccc12 [Example 68, trans-5′-(Pyridin-2-yloxy)-3′-oxo-N-methyl-N-(2-piperidin-1-ylethyl)-spiro[cyclohexane-1,1′-(3′H)-iso-benzofuran]-4-carboxamide]	0.67 nM	strongly inhibited
CN(CCN1CCCCC1)C(=O)[C@H]1CC[C@@]2(CC1)OC(=O)c1cc(F)ccc12.Cl [Example 10, trans-5′-fluoro-3′-oxo-N-methyl-N-(2-piperidin-1-ylethyl)-spiro[cyclohexane-1,1′-(3′H)-isobenzofuran]-4-carboxamide hydrochloride]	4 nM	strongly inhibited

— US7960402B2, “Carbamoyl-substituted spiro derivative” (Banyu Pharmaceutical Co., Ltd., priority 2004, dated 2011)
